Publication PMC10416055, “Structural basis of bidirectional allostery across the heme in a cytochrome P450 enzyme” (The Journal of Biological Chemistry, 2023)

Tested on: CYP121

In the case of `Clc1ccccc1C(c1ccccc1)(c1ccccc1)n1ccnc1` [clotrimazole], the “absorbance (Soret peak) of ligand-bound CYP121” value is reported as 424 nm.

For `CC(=O)N1CCN(c2ccc(OCC3COC(Cn4ccnc4)(c4ccc(Cl)cc4Cl)O3)cc2)CC1` (centres unmarked) [ketoconazole], the “absorbance (Soret peak) of ligand-bound CYP121” value was 421 nm.
